# Measured values published in ChEMBL document CHEMBL3044578, “Synthesis, insecticidal activity, and molecular docking studies of nitenpyram analogues with a flexible ester arm anchored on tetrahydropyrimidine ring” (2011).
# Test system: Nilaparvata lugens
# Test: Insecticidal activity against Nilaparvata lugens (brown planthopper) assessed as mortality at 20 mg/l after 72 hr
# Assay type: functional
row,Structure (SMILES),mortality at 20 µg/mL
1,CCCCOC(=O)CCCN1CC([N+](=O)[O-])=C(N(CC)Cc2ccc(Cl)nc2)N(C)C1,82%
2,CCC(C)OC(=O)CCCN1CC([N+](=O)[O-])=C(N(CC)Cc2ccc(Cl)nc2)N(C)C1 (configuration not stated),59%
3,CCN(Cc1ccc(Cl)nc1)C1=C([N+](=O)[O-])CN(CCCC(=O)OCC(C)C)CN1C,54%
4,CCN(Cc1ccc(Cl)nc1)C1=C([N+](=O)[O-])CN(CCCC(=O)OC(C)(C)C)CN1C,36%
5,CCC(C)OC(=O)CN1CC([N+](=O)[O-])=C(N(CC)Cc2ccc(Cl)nc2)N(C)C1 (configuration not stated),53%
6,CCN(Cc1ccc(Cl)nc1)C1=C([N+](=O)[O-])CN(CC(=O)OCC(C)C)CN1C,68%
7,CCN(Cc1ccc(Cl)nc1)C1=C([N+](=O)[O-])CN(CC(=O)OC(C)(C)C)CN1C,47%
8,CCN(Cc1ccc(Cl)nc1)C1=C([N+](=O)[O-])CN(CCC(=O)OC)CN1C,95%
9,CCOC(=O)CCN1CC([N+](=O)[O-])=C(N(CC)Cc2ccc(Cl)nc2)N(C)C1,93%
10,CCCOC(=O)CCN1CC([N+](=O)[O-])=C(N(CC)Cc2ccc(Cl)nc2)N(C)C1,100%
11,CCN(Cc1ccc(Cl)nc1)C1=C([N+](=O)[O-])CN(CCC(=O)OC(C)C)CN1C,100%
12,CCCCOC(=O)CCN1CC([N+](=O)[O-])=C(N(CC)Cc2ccc(Cl)nc2)N(C)C1,78%
13,CCC(C)OC(=O)CCN1CC([N+](=O)[O-])=C(N(CC)Cc2ccc(Cl)nc2)N(C)C1 (configuration not stated),84%
14,CCN(Cc1ccc(Cl)nc1)C1=C([N+](=O)[O-])CN(CCC(=O)OCC(C)C)CN1C,52%
15,CCN(Cc1ccc(Cl)nc1)C1=C([N+](=O)[O-])CN(CCC(=O)OC(C)(C)C)CN1C,66%
16,CCN(Cc1ccc(Cl)nc1)C1=C([N+](=O)[O-])CN(CCCC(=O)OC)CN1C,79%
17,CCOC(=O)CCCN1CC([N+](=O)[O-])=C(N(CC)Cc2ccc(Cl)nc2)N(C)C1,85%
18,CCCOC(=O)CCCN1CC([N+](=O)[O-])=C(N(CC)Cc2ccc(Cl)nc2)N(C)C1,43%
19,CCN(Cc1ccc(Cl)nc1)C1=C([N+](=O)[O-])CN(CCCC(=O)OC(C)C)CN1C,58%
20,CCN(Cc1ccc(Cl)nc1)C1=C([N+](=O)[O-])CN(CC(=O)OC)CN1C,86%
21,CCOC(=O)CN1CC([N+](=O)[O-])=C(N(CC)Cc2ccc(Cl)nc2)N(C)C1,94%
22,CCCOC(=O)CN1CC([N+](=O)[O-])=C(N(CC)Cc2ccc(Cl)nc2)N(C)C1,73%
23,CCN(Cc1ccc(Cl)nc1)C1=C([N+](=O)[O-])CN(CC(=O)OC(C)C)CN1C,76%
24,CCCCOC(=O)CN1CC([N+](=O)[O-])=C(N(CC)Cc2ccc(Cl)nc2)N(C)C1,67%
25,O=[N+]([O-])/N=C1\NCCN1Cc1ccc(Cl)nc1 [IMIDACLOPRID],100%
26,CCN(Cc1ccc(Cl)nc1)/C(=C/[N+](=O)[O-])NC [NITENPYRAM],100%

# Test system: Nilaparvata lugens
# Test: Insecticidal activity against Nilaparvata lugens (brown planthopper) assessed as mortality at 500 mg/l after 72 hr
# Assay type: functional
row,Structure (SMILES),mortality at 500 µg/mL
1,CCCCOC(=O)CCCN1CC([N+](=O)[O-])=C(N(CC)Cc2ccc(Cl)nc2)N(C)C1,100%
2,CCC(C)OC(=O)CCCN1CC([N+](=O)[O-])=C(N(CC)Cc2ccc(Cl)nc2)N(C)C1 (configuration not stated),100%
3,CCN(Cc1ccc(Cl)nc1)C1=C([N+](=O)[O-])CN(CCCC(=O)OCC(C)C)CN1C,100%
4,CCN(Cc1ccc(Cl)nc1)C1=C([N+](=O)[O-])CN(CCCC(=O)OC(C)(C)C)CN1C,100%
5,CCC(C)OC(=O)CN1CC([N+](=O)[O-])=C(N(CC)Cc2ccc(Cl)nc2)N(C)C1 (configuration not stated),100%
6,CCN(Cc1ccc(Cl)nc1)C1=C([N+](=O)[O-])CN(CC(=O)OCC(C)C)CN1C,100%
7,CCN(Cc1ccc(Cl)nc1)C1=C([N+](=O)[O-])CN(CC(=O)OC(C)(C)C)CN1C,100%
8,CCN(Cc1ccc(Cl)nc1)C1=C([N+](=O)[O-])CN(CCC(=O)OC)CN1C,100%
9,CCOC(=O)CCN1CC([N+](=O)[O-])=C(N(CC)Cc2ccc(Cl)nc2)N(C)C1,100%
10,CCCOC(=O)CCN1CC([N+](=O)[O-])=C(N(CC)Cc2ccc(Cl)nc2)N(C)C1,100%
11,CCN(Cc1ccc(Cl)nc1)C1=C([N+](=O)[O-])CN(CCC(=O)OC(C)C)CN1C,100%
12,CCCCOC(=O)CCN1CC([N+](=O)[O-])=C(N(CC)Cc2ccc(Cl)nc2)N(C)C1,100%
13,CCC(C)OC(=O)CCN1CC([N+](=O)[O-])=C(N(CC)Cc2ccc(Cl)nc2)N(C)C1 (configuration not stated),100%
14,CCN(Cc1ccc(Cl)nc1)C1=C([N+](=O)[O-])CN(CCC(=O)OCC(C)C)CN1C,100%
15,CCN(Cc1ccc(Cl)nc1)C1=C([N+](=O)[O-])CN(CCC(=O)OC(C)(C)C)CN1C,100%
16,CCN(Cc1ccc(Cl)nc1)C1=C([N+](=O)[O-])CN(CCCC(=O)OC)CN1C,100%
17,CCOC(=O)CCCN1CC([N+](=O)[O-])=C(N(CC)Cc2ccc(Cl)nc2)N(C)C1,100%
18,CCCOC(=O)CCCN1CC([N+](=O)[O-])=C(N(CC)Cc2ccc(Cl)nc2)N(C)C1,100%
19,CCN(Cc1ccc(Cl)nc1)C1=C([N+](=O)[O-])CN(CCCC(=O)OC(C)C)CN1C,100%
20,CCN(Cc1ccc(Cl)nc1)C1=C([N+](=O)[O-])CN(CC(=O)OC)CN1C,100%
21,CCOC(=O)CN1CC([N+](=O)[O-])=C(N(CC)Cc2ccc(Cl)nc2)N(C)C1,100%
22,CCCOC(=O)CN1CC([N+](=O)[O-])=C(N(CC)Cc2ccc(Cl)nc2)N(C)C1,100%
23,CCN(Cc1ccc(Cl)nc1)C1=C([N+](=O)[O-])CN(CC(=O)OC(C)C)CN1C,100%
24,CCCCOC(=O)CN1CC([N+](=O)[O-])=C(N(CC)Cc2ccc(Cl)nc2)N(C)C1,100%
25,O=[N+]([O-])/N=C1\NCCN1Cc1ccc(Cl)nc1 [IMIDACLOPRID],100%
26,CCN(Cc1ccc(Cl)nc1)/C(=C/[N+](=O)[O-])NC [NITENPYRAM],100%

# Test system: Nilaparvata lugens
# Test: Insecticidal activity against Nilaparvata lugens (brown planthopper) assessed as mortality after 72 hr
# Assay type: functional
row,Structure (SMILES),LC50
1,CCCOC(=O)CCN1CC([N+](=O)[O-])=C(N(CC)Cc2ccc(Cl)nc2)N(C)C1,0.194 µg/mL
2,CCN(Cc1ccc(Cl)nc1)C1=C([N+](=O)[O-])CN(CCC(=O)OC(C)C)CN1C,0.162 µg/mL
3,O=[N+]([O-])/N=C1\NCCN1Cc1ccc(Cl)nc1 [IMIDACLOPRID],0.108 µg/mL
4,CCN(Cc1ccc(Cl)nc1)/C(=C/[N+](=O)[O-])NC [NITENPYRAM],0.129 µg/mL

# Test system: Nilaparvata lugens
# Test: Insecticidal activity against Nilaparvata lugens (brown planthopper) assessed as mortality at 100 mg/l after 72 hr
# Assay type: functional
row,Structure (SMILES),mortality at 100 µg/mL
1,CCCCOC(=O)CCCN1CC([N+](=O)[O-])=C(N(CC)Cc2ccc(Cl)nc2)N(C)C1,100%
2,CCC(C)OC(=O)CCCN1CC([N+](=O)[O-])=C(N(CC)Cc2ccc(Cl)nc2)N(C)C1 (configuration not stated),93%
3,CCN(Cc1ccc(Cl)nc1)C1=C([N+](=O)[O-])CN(CCCC(=O)OCC(C)C)CN1C,100%
4,CCN(Cc1ccc(Cl)nc1)C1=C([N+](=O)[O-])CN(CCCC(=O)OC(C)(C)C)CN1C,68%
5,CCC(C)OC(=O)CN1CC([N+](=O)[O-])=C(N(CC)Cc2ccc(Cl)nc2)N(C)C1 (configuration not stated),79%
6,CCN(Cc1ccc(Cl)nc1)C1=C([N+](=O)[O-])CN(CC(=O)OCC(C)C)CN1C,100%
7,CCN(Cc1ccc(Cl)nc1)C1=C([N+](=O)[O-])CN(CC(=O)OC(C)(C)C)CN1C,73%
8,CCN(Cc1ccc(Cl)nc1)C1=C([N+](=O)[O-])CN(CCC(=O)OC)CN1C,100%
9,CCOC(=O)CCN1CC([N+](=O)[O-])=C(N(CC)Cc2ccc(Cl)nc2)N(C)C1,100%
10,CCCOC(=O)CCN1CC([N+](=O)[O-])=C(N(CC)Cc2ccc(Cl)nc2)N(C)C1,100%
11,CCN(Cc1ccc(Cl)nc1)C1=C([N+](=O)[O-])CN(CCC(=O)OC(C)C)CN1C,100%
12,CCCCOC(=O)CCN1CC([N+](=O)[O-])=C(N(CC)Cc2ccc(Cl)nc2)N(C)C1,92%
13,CCC(C)OC(=O)CCN1CC([N+](=O)[O-])=C(N(CC)Cc2ccc(Cl)nc2)N(C)C1 (configuration not stated),100%
14,CCN(Cc1ccc(Cl)nc1)C1=C([N+](=O)[O-])CN(CCC(=O)OCC(C)C)CN1C,100%
15,CCN(Cc1ccc(Cl)nc1)C1=C([N+](=O)[O-])CN(CCC(=O)OC(C)(C)C)CN1C,81%
16,CCN(Cc1ccc(Cl)nc1)C1=C([N+](=O)[O-])CN(CCCC(=O)OC)CN1C,100%
17,CCOC(=O)CCCN1CC([N+](=O)[O-])=C(N(CC)Cc2ccc(Cl)nc2)N(C)C1,100%
18,CCCOC(=O)CCCN1CC([N+](=O)[O-])=C(N(CC)Cc2ccc(Cl)nc2)N(C)C1,100%
19,CCN(Cc1ccc(Cl)nc1)C1=C([N+](=O)[O-])CN(CCCC(=O)OC(C)C)CN1C,100%
20,CCN(Cc1ccc(Cl)nc1)C1=C([N+](=O)[O-])CN(CC(=O)OC)CN1C,94%
21,CCOC(=O)CN1CC([N+](=O)[O-])=C(N(CC)Cc2ccc(Cl)nc2)N(C)C1,100%
22,CCCOC(=O)CN1CC([N+](=O)[O-])=C(N(CC)Cc2ccc(Cl)nc2)N(C)C1,96%
23,CCN(Cc1ccc(Cl)nc1)C1=C([N+](=O)[O-])CN(CC(=O)OC(C)C)CN1C,85%
24,CCCCOC(=O)CN1CC([N+](=O)[O-])=C(N(CC)Cc2ccc(Cl)nc2)N(C)C1,75%
25,O=[N+]([O-])/N=C1\NCCN1Cc1ccc(Cl)nc1 [IMIDACLOPRID],100%
26,CCN(Cc1ccc(Cl)nc1)/C(=C/[N+](=O)[O-])NC [NITENPYRAM],100%
